What all share (format): cell-based
Test [1] concerns the target T1, mTOR (Homo sapiens, UniProt P42345).
T1 construct: phosphorylation of the Akt protein at Ser473 (AKT lies downstream of PI3Kα in the signal transduction pathway) in the MDA-MB-468 cells; endogenous in cells; host or cells: MDA-MB-468 cells (ATCC HTB 132)
Kind of test: Assay d): mTOR cellular potency (phospho-AKT Ser473 in MDA-MB-468 cells). The settings on record: MDA-MB-468 cells, phospho-AKT Ser473, 2 h; Table 2; read-out: Assay d) mTOR Cell IC50. How it is done:
This assay was used to measure mTOR inhibition in cells. The aim of the phospho-AKT cell based mechanism of action assay using the Acumen Explorer is to identify inhibitors of either PI3Kα or mTOR-Rictor (Rapamycin insensitive companion of mTOR). This is measured by any decrease in the phosphorylation of the Akt protein at Ser473 (AKT lies downstream of PI3Kα in the signal transduction pathway) in the MDA-MB-468 cells following treatment with compound.
MDA-MB-468 cells (human breast adenocarcinoma #ATCC HTB 132) were seeded at 1500 cells/well in 40 μl of DMEM containing 10% FBS and 1% glutamine into Greiner 384 well black flat-bottomed plates. Cell plates were incubated for 18 h in a 37° C. incubator before dosing with compounds of Formula (I) in 100% DMSO using acoustic dispensing. Compounds were dosed in a 12 point concentration range into a randomised plate map. Control wells were generated either by dosing of 100% DMSO (max signal) or addition of a reference compound (a PI3K-βinhibitor) that completely eliminated the pAKT signal (min control). Plates were incubated at 37° C. for 2 h; cells were then fixed by the addition of 10 μl of a 3.7% formaldehyde solution. After 30 minutes the plates were washed with PBS using a Tecan PW384 plate washer. Wells were blocked and cells permeabilised with the addition of 40 μl of PBS containing 0.5% Tween20 and 1% Marvel™ (dried milk powder) and incubated for 60 minutes at r.t. The plates were washed with PBS containing 0.5% (v/v) Tween20 and 20 μl rabbit anti-phospho AKT Ser473 (Cell Signalling Technologies, #3787) in same PBS-Tween+1% Marvel™ was added and incubated overnight at 4° C.
Plates were washed 3 times with PBS+0.05% Tween 20 using a Tecan PW384. 20 μl of secondary antibody Alexa Fluor 488 anti-Rabbit (Molecular Probes, #A11008) diluted in PBS+0.05% Tween20 containing 1% Marvel™ was added to each well and incubated for 1 h at r.t. Plates were washed three times as before then 20 μl PBS added to each well and plates sealed with a black plate sealer.
The plates were read on an Acumen plate reader as soon as possible, measuring green fluorescence after excitation with 488 nm laser. Using this system IC50 values were generated and quality of plates was determined by control wells. Reference compounds were run each time to monitor assay performance.

The target in test [2] is T2, ATM kinase (Homo sapiens, UniProt Q13315).
T2 construct: endogenous in cells; host or cells: HT29 cells (ECACC #85061109)
T2 sequence (Q13315 whole entry): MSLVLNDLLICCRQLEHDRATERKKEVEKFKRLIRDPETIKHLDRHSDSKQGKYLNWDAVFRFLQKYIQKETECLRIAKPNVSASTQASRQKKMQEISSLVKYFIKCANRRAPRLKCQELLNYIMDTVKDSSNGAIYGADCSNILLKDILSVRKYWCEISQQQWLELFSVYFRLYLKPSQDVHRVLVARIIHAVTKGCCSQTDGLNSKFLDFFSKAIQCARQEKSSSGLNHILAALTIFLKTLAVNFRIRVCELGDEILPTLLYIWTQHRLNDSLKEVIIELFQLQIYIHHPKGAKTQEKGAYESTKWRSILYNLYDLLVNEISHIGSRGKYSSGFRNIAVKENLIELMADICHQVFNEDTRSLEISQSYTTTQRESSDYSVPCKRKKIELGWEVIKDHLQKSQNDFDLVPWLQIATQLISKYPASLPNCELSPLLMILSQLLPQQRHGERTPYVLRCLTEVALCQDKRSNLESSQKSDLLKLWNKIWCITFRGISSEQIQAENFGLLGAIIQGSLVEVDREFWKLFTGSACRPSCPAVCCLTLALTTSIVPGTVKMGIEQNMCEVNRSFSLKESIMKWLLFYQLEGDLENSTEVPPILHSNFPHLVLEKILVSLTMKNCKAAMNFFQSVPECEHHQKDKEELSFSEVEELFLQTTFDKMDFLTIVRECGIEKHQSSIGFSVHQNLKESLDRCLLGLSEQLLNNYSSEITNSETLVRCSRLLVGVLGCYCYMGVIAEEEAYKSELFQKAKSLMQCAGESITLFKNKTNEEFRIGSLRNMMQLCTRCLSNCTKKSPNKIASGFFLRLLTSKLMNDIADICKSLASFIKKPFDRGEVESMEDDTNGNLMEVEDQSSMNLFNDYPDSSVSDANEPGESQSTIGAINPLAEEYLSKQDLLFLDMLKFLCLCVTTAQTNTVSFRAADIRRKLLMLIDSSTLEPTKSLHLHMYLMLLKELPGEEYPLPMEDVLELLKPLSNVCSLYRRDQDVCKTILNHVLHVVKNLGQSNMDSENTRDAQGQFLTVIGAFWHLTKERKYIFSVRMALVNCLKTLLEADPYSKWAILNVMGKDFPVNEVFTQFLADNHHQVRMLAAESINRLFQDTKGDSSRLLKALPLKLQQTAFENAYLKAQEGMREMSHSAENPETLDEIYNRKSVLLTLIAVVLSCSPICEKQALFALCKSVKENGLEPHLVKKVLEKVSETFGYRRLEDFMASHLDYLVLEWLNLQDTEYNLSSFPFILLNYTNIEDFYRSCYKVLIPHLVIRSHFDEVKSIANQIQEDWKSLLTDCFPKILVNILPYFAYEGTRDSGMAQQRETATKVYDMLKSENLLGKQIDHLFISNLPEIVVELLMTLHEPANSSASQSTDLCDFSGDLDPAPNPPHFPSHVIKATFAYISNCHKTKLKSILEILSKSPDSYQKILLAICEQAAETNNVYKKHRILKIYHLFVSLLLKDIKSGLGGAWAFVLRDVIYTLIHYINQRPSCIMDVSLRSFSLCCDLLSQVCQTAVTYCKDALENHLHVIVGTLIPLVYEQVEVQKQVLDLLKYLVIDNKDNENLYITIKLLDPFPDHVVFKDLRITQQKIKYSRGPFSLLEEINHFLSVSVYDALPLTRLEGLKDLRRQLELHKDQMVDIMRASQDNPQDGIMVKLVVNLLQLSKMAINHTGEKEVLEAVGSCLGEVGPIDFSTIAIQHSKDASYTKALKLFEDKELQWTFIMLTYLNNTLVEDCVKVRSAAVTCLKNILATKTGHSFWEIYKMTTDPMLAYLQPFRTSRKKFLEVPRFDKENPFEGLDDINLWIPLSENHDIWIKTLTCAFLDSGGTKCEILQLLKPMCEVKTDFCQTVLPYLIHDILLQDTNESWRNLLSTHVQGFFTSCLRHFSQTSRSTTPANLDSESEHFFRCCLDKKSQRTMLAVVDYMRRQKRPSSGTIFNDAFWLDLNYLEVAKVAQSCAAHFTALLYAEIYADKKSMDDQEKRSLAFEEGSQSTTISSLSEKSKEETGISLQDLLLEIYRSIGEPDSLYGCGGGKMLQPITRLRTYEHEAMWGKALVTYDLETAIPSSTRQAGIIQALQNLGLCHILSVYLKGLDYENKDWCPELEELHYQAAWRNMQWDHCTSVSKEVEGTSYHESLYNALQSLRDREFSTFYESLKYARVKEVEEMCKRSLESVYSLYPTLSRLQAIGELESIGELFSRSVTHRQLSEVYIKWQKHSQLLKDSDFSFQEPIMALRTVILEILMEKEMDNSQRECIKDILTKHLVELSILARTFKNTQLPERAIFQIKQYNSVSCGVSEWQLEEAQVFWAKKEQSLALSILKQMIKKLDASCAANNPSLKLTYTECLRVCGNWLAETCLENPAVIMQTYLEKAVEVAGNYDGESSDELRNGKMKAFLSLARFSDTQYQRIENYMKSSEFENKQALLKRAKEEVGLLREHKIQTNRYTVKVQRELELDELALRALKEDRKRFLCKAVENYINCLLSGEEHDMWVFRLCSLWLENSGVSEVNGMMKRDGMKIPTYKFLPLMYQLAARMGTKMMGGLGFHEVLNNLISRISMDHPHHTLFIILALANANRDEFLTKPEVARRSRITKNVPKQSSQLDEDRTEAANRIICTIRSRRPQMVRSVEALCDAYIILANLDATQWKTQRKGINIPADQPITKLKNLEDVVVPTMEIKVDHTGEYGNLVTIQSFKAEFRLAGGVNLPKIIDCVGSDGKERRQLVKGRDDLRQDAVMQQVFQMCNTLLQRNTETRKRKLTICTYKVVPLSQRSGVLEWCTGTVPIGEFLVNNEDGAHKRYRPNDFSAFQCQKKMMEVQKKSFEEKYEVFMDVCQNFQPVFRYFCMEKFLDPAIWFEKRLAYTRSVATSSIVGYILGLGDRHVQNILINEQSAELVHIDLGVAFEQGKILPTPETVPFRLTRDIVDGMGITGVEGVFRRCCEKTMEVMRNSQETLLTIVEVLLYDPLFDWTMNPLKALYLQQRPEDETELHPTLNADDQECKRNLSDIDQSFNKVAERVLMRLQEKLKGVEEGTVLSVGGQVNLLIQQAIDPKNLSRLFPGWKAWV
Kind of test: Assay a): ATM cellular potency (pATM Ser1981 in irradiated HT29 cells). The settings on record: HT29 cells, X-ray irradiation, pATM Ser1981; Table 2; read-out: Assay a) ATM Cell IC50. As for the experimental part:
Most ATM molecules in the cell are rapidly phosphorylated on this site after doses of radiation as low as 0.5 Gy, and binding of a phosphospecific antibody is detectable after the introduction of only a few DNA double-strand breaks in the cell.
The rationale of the p ATM assay is to identify inhibitors of ATM in cells. HT29 cells are incubated with test compounds for 1 hr prior to X-ray-irradiation. 1 h later the cells are fixed and stained for p ATM (Ser1981). The fluorescence is read on the arrayscan imaging platform.
The following morning compounds of Formula (I) in 100% DMSO were added to assay plates by acoustic dispensing. After 1 h incubation at 37° C. and 5% CO2, plates (up to 6 at a time) were irradiated using the X-RAD 320 instrument (PXi) with equivalent to ˜600cGy. Plates were returned to the incubator for a further 1 h. […] Then 20 μl of 0.1% Triton X100 in PBS was added and incubated for 20 minutes at r.t., to permeabalise cells. Then the plates were washed once with […] PBS, using a Biotek EL405 plate washer.
After 1 h incubation at r.t., the plates were washed three times with 50 μl/well PBS, using a Biotek EL405 plate washer, and plates were sealed and kept in PBS at 4° C. until read. Plates were read using an ArrayScan VTI instrument, using an XF53 filter with 10× objective.

Test [3] concerns the target T3, ATR kinase (Homo sapiens, UniProt Q13535).
T3 construct: endogenous in cells; host or cells: HT29 cells (ECACC #85061109)
Kind of test: Assay b): ATR cellular potency (pChk1 Ser345 in HT29 cells after 4NQO). As to conditions: HT29 cells, 4NQO, pChk1 Ser345; Table 2; read-out: Assay b) ATR Cell IC50. As for the experimental part: ATR is a PI 3-kinase-related kinase which phosphorylates multiple substrates on serine or threonine residues in response to DNA damage during or replication blocks. Chk1, a downstream protein kinase of ATR, plays a key role in DNA damage checkpoint control. Activation of Chk1 involves phosphorylation of Ser317 and Ser345 (the latter regarded as the preferential target for phosphorylation/activation by ATR).
The following morning compound of Formula (I) in 100% DMSO were added to assay plates by acoustic dispensing. After 1 h incubation at 37° C. and 5% CO2, 40 nl of 3 mM 4NQO in 100% DMSO was added to all wells by acoustic dispensing, except minimum control wells which were left untreated with 4NQO to generate a null response control. Plates were returned to the incubator for a further 1 h. […] Then 20 μl of 0.1% Triton X100 in PBS was added and incubated for 10 minutes at r.t., to permeabalise cells. Then the plates were washed once with 50 μl/well PBS, using a Biotek EL405 plate washer.
After 2 h incubation at r.t., the plates were washed three times with 50 μl/well PBS, using a Biotek EL405 plate washer, and plates were then sealed with black plate seals until read. Plates were read using an ArrayScan VTI instrument, using an XF53 filter with 10× objective.

Some results are limits rather than exact numbers.

With `CO[C@H]1C[C@H](n2c(=O)n(C)c3cnc4ccc(-c5ccc(OCCCN(C)C)cc5)cc4c32)C1` [Example 21, 8-[4-[3-(dimethylamino)propoxy]phenyl]-1-(trans-3-methoxycyclobutyl)-3-methyl-imidazo[4,5-c]quinolin-2-one], the IC50 in test [1] was 5.07 µM; in test [2], 0.000533 µM; in test [3], above 30 µM.
Regarding `CN(C)CCOc1ccc(-c2ccc3ncc4c(c3c2)n(C2CCC2)c(=O)n4C)cc1` [Example 53, 1-cyclobutyl-8-[4-[2-(dimethylamino)ethoxy]phenyl]-3-methyl-imidazo[4,5-c]quinolin-2-one], the figures for the IC50 in test [1], in test [2] and in test [3] were 10 µM, 0.00938 µM and above 30 µM, respectively.
Consider `CN(C)CCCOc1ccc(-c2ccc3ncc4c(c3c2)n(C2CCOCC2)c(=O)n4C)cc1` [Example 44, 8-[4-[3-(dimethylamino)propoxy]phenyl]-3-methyl-1-tetrahydropyran-4-yl-imidazo[4,5-c]quinolin-2-one], for which the half-maximal inhibitory concentration (IC50) in test [1] was 6.99 µM; in test [2], 0.000364 µM; in test [3], above 21.7 µM.
On to `CN(C)CCOc1ccc(-c2ccc3ncc4c(c3c2)n([C@@H]2CCCOC2)c(=O)n4C)cc1` [Example 48, 8-[4-[2-(dimethylamino)ethoxy]phenyl]-3-methyl-1-[(3R)-tetrahydropyran-3-yl]imidazo[4,5-c]quinolin-2-one], for which the half-maximal inhibitory concentration (IC50) is 1.78 µM in test [1], 0.0247 µM in test [2] and above 26.8 µM in test [3].
Regarding `CO[C@H]1C[C@@H](n2c(=O)n(C)c3cnc4ccc(-c5ccc(OCCN(C)C)cc5)cc4c32)C1` [Example 55, 8-[4-[2-(dimethylamino)ethoxy]phenyl]-1-(3-(cis)methoxycyclobutyl)-3-methyl-imidazo[4,5-c]quinolin-2-one], the IC50 in test [1] was 4.44 µM; in test [2], 0.0113 µM; in test [3], above 30 µM.
Consider `CO[C@H]1CCC[C@H](n2c(=O)n(C)c3cnc4ccc(-c5ccc(OCCCN6CCCC6)cc5)cc4c32)C1` (single isomer, unassigned) [Example 30, 1-[trans-3-methoxycyclohexyl]-3-methyl-8-[4-(3-pyrrolidin-1-ylpropoxy)phenyl]imidazo[4,5-c]quinolin-2-one], for which the IC50 in test [1] is 1.7 µM; in test [2], 0.00162 µM; in test [3], 15.5 µM.
The corresponding values for `CO[C@H]1C[C@@H](n2c(=O)n(C)c3cnc4ccc(-c5ccc(OCCN6CCCC6)cc5)cc4c32)C1` [Example 49, 1-(3-(cis)methoxycyclobutyl)-3-methyl-8-[4-(2-pyrrolidin-1-ylethoxy)phenyl]imidazo[4,5-c]quinolin-2-one] are at least 30 µM, 0.0361 µM and above 30 µM.
The corresponding values for `Cn1c(=O)n([C@H]2CCCOC2)c2c3cc(-c4ccc(OCCN5CCCC5)cc4)ccc3ncc21` [Example 51, 3-methyl-8-[4-(2-pyrrolidin-1-ylethoxy)phenyl]-1-[(3S)-tetrahydropyran-3-yl]imidazo[4,5-c]quinolin-2-one] are 1.76 µM, 0.0102 µM and above 30 µM.
On to `CO[C@@H]1CC[C@H](n2c(=O)n(C)c3cnc4cc(F)c(-c5ccc(OCCCN(C)C)cc5)cc4c32)C1` (single isomer, unassigned) [Example 37, 8-[4-[3-(dimethylamino)propoxy]phenyl]-7-fluoro-1-[cis-3-methoxycyclopentyl]-3-methyl-imidazo[4,5-c]quinolin-2-one], for which the half-inhibitory concentration (IC50) in test [1] is 4.11 µM; in test [2], 0.00295 µM; in test [3], above 30 µM.
The corresponding values for `CO[C@H]1CC[C@H](n2c(=O)n(C)c3cnc4ccc(-c5ccc(OCCN(C)C)cc5)cc4c32)C1` [Example 52, 8-[4-[2-(dimethylamino)ethoxy]phenyl]-1-[(1S,3S)-3-methoxycyclopentyl]-3-methyl-imidazo[4,5-c]quinolin-2-one] are 5.63 µM, 0.00357 µM and 21.9 µM.

The IC50 is the midpoint of a concentration-inhibition curve.

The record behind these values is US20180318287A1, “Imidazo[4,5-c]quinolin-2-one Compounds and Their Use in Treating Cancer” (ASTRAZENECA AB, priority 2015, published 2018).
